The source of these data is PMC8403366, “Functional significance of gain-of-function H19 lncRNA in skeletal muscle differentiation and anti-obesity effects” (Genome Medicine, 2021).

The test system of one data set is Lep^Ob/Ob mice. The data set is described as follows: Leptin deficiency-induced obesity model. Type of data set: in vivo, mouse. The method, then:
The mice used in this study were purchased from Jackson Lab as follows: Lep^Ob/Ob (stock 000632), C57BL/6 J (stock 000664). All animals were from a C57BL/6 J background and housed with a 12 h light/12 h dark cycle in the animal facility with free access to water and food. 4 to 10 mice were used in each group. Exact numbers for each experiment are included in the figure legends.
To determine the effects of H19-Rgof with a skeletal muscle enrichment peptide agrin (AGR-H19-Rgof) on WT C57BL/6 J or Lep^Ob/Ob mice, AGR-tagged oligonucleotides were used. The synthesis and sequence information of AGR-tagged RNA oligonucleotides are described in “Synthesis of H19-Rgof mimics, AGR-H19-Rgof mimics, and Pharmacokinetics (PK) studies.” AGR-Scr (conjugated to scramble oligonucleotides), H19-Rgof, or AGR-H19-Rgof mimics were injected at a dose of 1 mg/kg intraperitoneally into 3-week-old male and female mice. For AGR-H19-Rgof treatment in HFD (Cat # D12492, Research Diets, Inc.)-fed mice, male C57BL/6 J mice were fed with a HFD starting at 6 weeks of age. The AGR-H19-Rgof and AGR-Scr mimics were injected at a dose of 0.5 or 1 mg/kg intraperitoneally every other day starting 2 weeks after the initiation of HFD feeding. Body weight was measured weekly. The general health condition, grooming, and behavior of all animals were monitored daily, and injection sites were checked for signs of redness or edema.
Unless otherwise indicated, mice were fasted for 4–6 h, anesthetized with isoflurane, and sacrificed by heart puncture. Tissues were dissected, weighed, and either dipped in liquid nitrogen or fixed for immunohistochemistry analysis. Individual muscle was dissected on one side of the body and weighed. […]
H&E staining was performed in paraffin-embedded livers to visualize the pattern of lipid accumulation and inflammatory status. […] Adipocyte size (from WAT) was determined with ImageJ software. Sections from five animals per group were used and at least 500 adipocytes per animal were measured from multiple fields.

The test system of the next data set is C57BL/6 J mice. Put plainly: Tissue distribution / pharmacokinetics of biotinylated mimics. Format: in vivo, mouse. As to conditions: 10 mg/kg i.p.; streptavidin immunohistochemistry, 24 hours post administration; n = 5. As for the experimental part:
The H19-Rgof mimics and AGR-H19-Rgof mimics were synthesized by Bio-synthesis Inc. The linker that connected the peptide and RNA oligonucleotides was succinimidyl 4-(N-maleimidomethyl) cyclohexane-1-carboxylate (SMCC). RNA mimics sequences are listed in the Additional file 1: Table S1. To characterize the pharmacokinetics of H19-Rgof and AGR-H19-Rgof mimics, the biotinylated H19-Rgof and AGR-H19-Rgof mimics (10 mg/kg) were intraperitoneally injected into C57BL/6 J mice. The liver, kidneys, lungs, heart, and skeletal muscles of the animals were collected 3, 12, 24, 48, or 72 h post-injection (n = 5 animal per time point). Tissues were subjected to immunohistochemistry using streptavidin alkaline phosphatase conjugates and small RNA isolation in accordance with the manufacturer’s instructions using miRCURY™ RNA Isolation Kits (Qiagen). Immunostained tissue slides were obtained with a Vectra Polaris Multispectral Imaging scanner (PerkinElmer). The quantification of immunohistochemistry staining density was performed by Image-pro plus 6.0 (Media Cybernetics) and calculated based on the average staining intensity and the percentage of positively stained cells. Pharmacokinetic parameters were determined by nonlinear regression analysis.

A further data set concerns iPSC-SkMC. Put plainly: Utrophin immunofluorescence in iPSC-SkMC. Type of data set: cell-based, human. As to conditions: vs AGR-Scr, n = 5. As for the experimental part: For myogenic differentiation, iPSCs were differentiated into skeletal muscle cells using Skeletal Muscle Differentiation Kit (Genea Biocells) according to the manufacturer’s protocol. Briefly, iPSCs were plated onto a collagen I coated plate and maintained for 6–10 days in Skeletal Muscle Induction Medium (Genea Biocells) until confluent. Dissociated myogenic precursors were then plated on a collagen I coated plate and cultured in Skeletal Myoblast Medium (Genea Biocells) for 6–8 days. When confluent, cells were maintained in Myotube Medium or Myotube Fusion Medium (Genea Biocells). Cryopreserved stocks of myoblasts Genea002 were obtained from Genea Biocells. […]
Skeletal muscles were collected and fixed in 10% Neutral Buffered Formalin at 4 °C for 1 h, followed by 10% sucrose/PBS overnight and then 18% sucrose/PBS overnight at 4 °C before being frozen embedded and sectioned. […] Muscle cross-sectional area and fiber numbers were quantified by ImageJ. […] The quantification of IF staining density was performed by Image-pro plus 6.0 (Media Cybernetics) and calculated based on the average staining intensity and the percentage of positively stained cells. To quantify myotube fusion, fusion index was calculated by dividing the number of nuclei in MHC-positive myotubes with ≥ 3 nuclei by the total number of nuclei analyzed in a field.

Take “N-terminal-ELTNEIPAELTNEIPA-Linker-5'-[2’-F-C][2’-F-U][2’-F-C][2’-F-U][2’-F-U][2’-F-U][2’-F-A][2’-F-U][2’-F-U][2’-F-U][2’-F-C][2’-F-U][2’-F-G][2’-F-A][2’-F-G][2’-F-C][2’-F-U][2’-F-U][2’-F-U][2’-F-C][2’-F-C][2’-F-U][2’-F-A][2’-F-U][2’-F-C][2’-F-U][2’-F-U][2’-F-U][2’-F-C][2’-F-C]-3' [AGR-H19-Rgof]”: the “fatty acid deposition in livers” value in the data set with Lep^Ob/Ob mice (Lep^ob/ob mice, Oil Red O, n = 8, 8) was “significantly improved”. Also, the muscle mass entry in the data set with Lep^Ob/Ob mice (Lep^ob/ob mice, vs AGR-Scr, n = 10, 9) was “increased”. For the same substance, the body weight entry in the data set on Lep^Ob/Ob mice (male Lep^ob/ob mice, 8 weeks post-treatment, vs AGR-Scr, n = 10, 9) is listed as “reduced”. In addition, in the data set with C57BL/6 J mice, the “accumulation in liver, kidneys and lungs” value is reported as “minimal accumulation”; the “biotin-labeled mimic detected in skeletal muscle” value is recorded as “substantial proportion”; the “skeletal muscle distribution compared to unlabeled H19-Rgof” value was “significantly enhanced”. In addition, the utrophin protein status result with iPSC-SkMC is recorded as “elevated”.
